# Activity calls are given as the source filed them. The rule behind the calls is not given here.
# Legend:
# PA-1 [1] = assay: Induction of apoptosis in human PA-1 cells assessed as necrotic cells at 40 uM incubated for 48 hrs by AnnexinV-FITC/PI staining based flow cytometry analysis (Rvb= 1.48%); type: functional
# [2] = Toxicity in BALB/C nude mouse xenografted with human PA-1 cells assessed as pathological changes in kidney at 75 to 150 mg/kg,po BID for 21 days by H&E staining based microscopic analysis; type: organism-based; settings: in vivo, 504 h, dose 75-150 mg/kg, time 21 day
# [3] = molecular target: Histone-lysine N-methyltransferase SUV39H1 (Homo sapiens) (UniProt O43463); assay: Inhibition of SUV39H1 (unknown origin) at 1 to 10 uM by AlphaLlSA assay; settings: dose 1-10 µM
# SK-OV-3 = assay: Antiproliferative activity against human SK-OV-3 cells assessed as inhibition of cell proliferation incubated for 72 hrs by MTT assay; type: functional, cell-based; settings: SK-OV-3, 72 h
# [4] = molecular target: N-lysine methyltransferase KMT5A (Homo sapiens) (UniProt Q9NQR1); assay: Inhibition of SETD8 (unknown origin) at 1 to 10 uM by AlphaLlSA assay; settings: dose 1-10 µM
# [5] = system: Histone-lysine N-methyltransferase EZH2 (Homo sapiens), Q15910 [Y641N]; settings: dose 10.0 nM
# Description: Inhibition of EZH2 Y614N mutant (unknown origin) at 10 nM by AlphaLlSA assay
# PA-1 [6] = assay: Inhibition of colony formation in human PA-1 cells assessed as reduction in number of colonies at 0.25 to 10 uM incubated for 14 days with medium change every 3 days by crystal violet staining method; type: functional, cell-based; settings: dose 0.25-10 µM, time 14.0 day
# [7] = Toxicity in BALB/C nude mouse xenografted with human PA-1 cells assessed as pathological changes in heart at 75 to 150 mg/kg,po BID for 21 days by H&E staining based microscopic analysis; type: organism-based; settings: in vivo, 504 h, dose 75-150 mg/kg, time 21 day
# [8] = molecular target: Histone-lysine N-methyltransferase EHMT2 (Homo sapiens) (UniProt Q96KQ7); assay: Inhibition of G9a (unknown origin) at 1 to 10 uM by AlphaLlSA assay; settings: dose 1-10 µM
# [9] = AUCt in Sprague-Dawley rat at 100 mg/kg, po and measured upto 24 hrs by LC-MS/MS analysis; type: ADME, organism-based; set-up: time < 24 hrs, dose 100 mg/kg, route po; settings: in vivo
# A549 = assay: Antiproliferative activity against human A549 cells assessed as inhibition of cell proliferation incubated for 72 hrs by MTT assay; type: functional, cell-based; settings: A549, 72 h
# [10] = molecular target: T1, Histone-lysine N-methyltransferase EZH2 (Homo sapiens, UniProt Q15910); assay: Inhibition of EZH2 methyltransferase activity in human A2780 cells assessed as reduction in H3K27me3 level incubated for 3 days by Western blot analysis; type: cell-based
# Target sequence in this assay (Q15910 whole entry): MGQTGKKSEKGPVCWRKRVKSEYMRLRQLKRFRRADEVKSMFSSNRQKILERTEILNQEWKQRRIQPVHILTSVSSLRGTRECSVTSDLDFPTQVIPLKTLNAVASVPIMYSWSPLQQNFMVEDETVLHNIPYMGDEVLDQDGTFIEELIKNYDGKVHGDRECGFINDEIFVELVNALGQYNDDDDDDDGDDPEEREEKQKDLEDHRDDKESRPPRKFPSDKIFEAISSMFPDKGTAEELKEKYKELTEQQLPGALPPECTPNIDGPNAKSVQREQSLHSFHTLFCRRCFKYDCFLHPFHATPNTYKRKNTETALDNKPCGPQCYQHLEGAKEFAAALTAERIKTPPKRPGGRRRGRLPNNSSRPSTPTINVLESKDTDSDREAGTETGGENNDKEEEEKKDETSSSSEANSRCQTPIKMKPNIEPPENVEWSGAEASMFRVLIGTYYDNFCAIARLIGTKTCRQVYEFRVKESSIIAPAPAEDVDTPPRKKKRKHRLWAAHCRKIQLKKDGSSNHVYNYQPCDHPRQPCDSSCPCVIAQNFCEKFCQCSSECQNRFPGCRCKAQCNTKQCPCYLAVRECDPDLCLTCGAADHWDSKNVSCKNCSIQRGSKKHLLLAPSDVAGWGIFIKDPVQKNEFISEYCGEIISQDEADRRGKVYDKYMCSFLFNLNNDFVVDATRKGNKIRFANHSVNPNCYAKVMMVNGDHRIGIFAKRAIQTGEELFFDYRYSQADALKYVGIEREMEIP
# HEY = assay: Antiproliferative activity against human HEY cells assessed as inhibition of cell proliferation incubated for 72 hrs by MTT assay; type: functional, cell-based
# [11] = system: Histone-lysine N-methyltransferase EZH2 (Homo sapiens), Q15910 [Y641F]; settings: dose 10.0 nM
# Description: Inhibition of EZH2 Y614F mutant (unknown origin) at 10 nM by AlphaLlSA assay
# [12] = Cmax in Sprague-Dawley rat at 100 mg/kg, po and measured upto 24 hrs by LC-MS/MS analysis; type: ADME, organism-based; set-up: dose 100 mg/kg, time < 24 hrs, route po; settings: in vivo
# [13] = Toxicity in BALB/C nude mouse xenografted with human PA-1 cells assessed as pathological changes in serum biochemical values at 75 to 150 mg/kg,po BID for 21 days; type: organism-based; settings: in vivo, 504 h, dose 75-150 mg/kg, time 21 day
# [14] = molecular target: T1, Histone-lysine N-methyltransferase EZH2; assay: Inhibition of EZH2 methyltransferase activity in human PA-1 cells assessed as reduction in H3K27me3 level at 10 uM and measured upto 4 days by Western blot analysis; type: cell-based; settings: time <= 4.0 day, TDE = time-dependent effect
# Target sequence in this assay (Q15910 whole entry, looked up): as the sequence (Q15910 whole entry) above
# BT-549 = assay: Antiproliferative activity against human BT-549 cells assessed as inhibition of cell proliferation incubated for 72 hrs by MTT assay; type: functional, cell-based; settings: BT-549, 72 h
# [15] = Toxicity in BALB/C nude mouse xenografted with human PA-1 cells assessed as pathological changes in hematological parameters at 75 to 150 mg/kg,po BID for 21 days; type: organism-based; settings: in vivo, 504 h, dose 75-150 mg/kg, time 21 day
# [16] = Toxicity in BALB/C nude mouse xenografted with human PA-1 cells assessed as pathological changes in spleen at 75 to 150 mg/kg,po BID for 21 days by H&E staining based microscopic analysis; type: organism-based; settings: in vivo, 504 h, dose 75-150 mg/kg, time 21 day
# PA-1 [17] = assay: Induction of apoptosis in human PA-1 cells assessed as viable cells at 5 uM incubated for 48 hrs by AnnexinV-FITC/PI staining based flow cytometry analysis (Rvb= 88.53%); type: functional; settings: read-out: Activity
# ES-2 = assay: Antiproliferative activity against human ES2 cells assessed as inhibition of cell proliferation incubated for 72 hrs by MTT assay; type: functional, cell-based; settings: ES-2, 72 h
# [18] = molecular target: T1, Histone-lysine N-methyltransferase EZH2; assay: Inhibition of EZH2 methyltransferase activity in human PA-1 cells assessed as reduction in H3K27me3 level at 10 uM incubated for 3 days followed by compound washout and measured after 4 days by Western blot analysis; type: cell-based; settings: time 3.0 day
# Target sequence in this assay (Q15910 whole entry, looked up): as the sequence (Q15910 whole entry) above
# PA-1 [19] = assay: Induction of apoptosis in human PA-1 cells assessed as late apoptotic cells at 40 uM incubated for 48 hrs by AnnexinV-FITC/PI staining based flow cytometry analysis (Rvb= 3.09%); type: functional
# PA-1 [20] = assay: Induction of apoptosis in human PA-1 cells assessed as necrotic cells at 20 uM incubated for 48 hrs by AnnexinV-FITC/PI staining based flow cytometry analysis (Rvb= 1.48%); type: functional
# PA-1 [21] = assay: Induction of apoptosis in human PA-1 cells assessed as early apoptotic cells at 40 uM incubated for 48 hrs by AnnexinV-FITC/PI staining based flow cytometry analysis (Rvb= 6.89%); type: functional
# [22] = Toxicity in BALB/C nude mouse xenografted with human PA-1 cells assessed as pathological changes in liver at 75 to 150 mg/kg,po BID for 21 days by H&E staining based microscopic analysis; type: organism-based; settings: in vivo, 504 h, dose 75-150 mg/kg, time 21 day
# [23] = AUCt in Sprague-Dawley rat at 5 mg/kg, iv and measured upto 24 hrs by LC-MS/MS analysis; type: ADME, organism-based; set-up: time < 24 hrs, dose 5 mg/kg, route iv; settings: in vivo
# [24] = molecular target: T1, Histone-lysine N-methyltransferase EZH2; assay: Binding affinity to wild type recombinant EZH2 (494 to 737 residues) (unknown origin) expressed in Escherichia coli assessed as adduct formation incubated for 2 hrs by LC-MS analysis
# Target sequence in this assay (Q15910 whole entry, looked up): as the sequence (Q15910 whole entry) above
# [25] = MRT(t) in Sprague-Dawley rat at 100 mg/kg, po and measured upto 24 hrs by LC-MS/MS analysis; type: ADME, organism-based; settings: in vivo
# [26] = molecular target: Protein arginine N-methyltransferase 5 (Homo sapiens) (UniProt O14744); assay: Inhibition of PRMT5 (unknown origin) at 1 to 10 uM by AlphaLlSA assay; settings: dose 1-10 µM
# A2780 = assay: Inhibition of colony formation in human A2780 cells assessed as reduction in number of colonies at 0.25 to 10 uM incubated for 14 days with medium change every 3 days by crystal violet staining method; type: functional, cell-based; settings: dose 0.25-10 µM, time 14.0 day
# [27] = molecular target: Protein arginine N-methyltransferase 7 (Homo sapiens) (UniProt Q9NVM4); assay: Inhibition of PRMT7 (unknown origin) at 1 to 10 uM by AlphaLlSA assay; settings: dose 1-10 µM
# [28] = system: Histone-lysine N-methyltransferase EZH2 (Homo sapiens), Q15910 [A677G]; assay: Inhibition of EZH2 […] mutant (unknown origin) at 1 nM by AlphaLlSA assay
# NCI-H1703 = assay: Antiproliferative activity against human NCI-H1703 cells assessed as inhibition of cell proliferation incubated for 72 hrs by MTT assay; type: functional, cell-based; settings: NCI-H1703, 72 h
# Sequence of N-lysine methyltransferase KMT5A (Homo sapiens) (Q9NQR1 whole entry): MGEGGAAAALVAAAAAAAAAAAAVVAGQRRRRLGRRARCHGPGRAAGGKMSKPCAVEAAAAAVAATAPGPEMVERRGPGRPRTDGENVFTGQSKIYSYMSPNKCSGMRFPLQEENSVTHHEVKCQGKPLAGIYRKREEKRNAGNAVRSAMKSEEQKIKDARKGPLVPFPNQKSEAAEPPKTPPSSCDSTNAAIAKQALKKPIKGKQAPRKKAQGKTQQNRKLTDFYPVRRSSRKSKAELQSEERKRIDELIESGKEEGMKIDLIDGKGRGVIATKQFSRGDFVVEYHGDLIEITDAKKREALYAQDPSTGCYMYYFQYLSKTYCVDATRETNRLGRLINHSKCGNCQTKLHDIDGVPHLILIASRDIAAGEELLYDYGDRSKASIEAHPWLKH
# Sequence of Histone-lysine N-methyltransferase SUV39H1 (Homo sapiens) (O43463 whole entry): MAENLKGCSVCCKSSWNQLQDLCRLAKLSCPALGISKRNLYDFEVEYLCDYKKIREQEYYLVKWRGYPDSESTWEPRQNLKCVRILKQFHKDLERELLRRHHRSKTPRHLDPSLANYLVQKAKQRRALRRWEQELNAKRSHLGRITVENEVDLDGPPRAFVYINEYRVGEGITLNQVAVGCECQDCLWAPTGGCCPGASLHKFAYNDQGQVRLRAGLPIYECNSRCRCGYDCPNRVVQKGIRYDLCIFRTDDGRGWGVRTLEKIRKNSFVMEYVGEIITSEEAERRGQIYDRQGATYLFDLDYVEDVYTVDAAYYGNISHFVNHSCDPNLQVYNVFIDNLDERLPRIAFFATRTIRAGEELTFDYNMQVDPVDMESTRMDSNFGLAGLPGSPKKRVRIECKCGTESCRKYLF
# Sequence of Histone-lysine N-methyltransferase EZH2 (Homo sapiens), Q15910 [Y641N] (Q15910 whole entry Y641N): as the sequence (Q15910 whole entry) above, with Y641N counted along it
# Sequence of Histone-lysine N-methyltransferase EZH2 (Homo sapiens), Q15910 [Y641F] (Q15910 whole entry Y641F, looked up): as the sequence (Q15910 whole entry) above, with Y641F counted along it
# Sequence of Histone-lysine N-methyltransferase EZH2 (Homo sapiens), Q15910 [A677G] (Q15910 whole entry A677G): as the sequence (Q15910 whole entry) above, with A677G counted along it
# Sequence of Protein arginine N-methyltransferase 5 (Homo sapiens) (O14744 whole entry): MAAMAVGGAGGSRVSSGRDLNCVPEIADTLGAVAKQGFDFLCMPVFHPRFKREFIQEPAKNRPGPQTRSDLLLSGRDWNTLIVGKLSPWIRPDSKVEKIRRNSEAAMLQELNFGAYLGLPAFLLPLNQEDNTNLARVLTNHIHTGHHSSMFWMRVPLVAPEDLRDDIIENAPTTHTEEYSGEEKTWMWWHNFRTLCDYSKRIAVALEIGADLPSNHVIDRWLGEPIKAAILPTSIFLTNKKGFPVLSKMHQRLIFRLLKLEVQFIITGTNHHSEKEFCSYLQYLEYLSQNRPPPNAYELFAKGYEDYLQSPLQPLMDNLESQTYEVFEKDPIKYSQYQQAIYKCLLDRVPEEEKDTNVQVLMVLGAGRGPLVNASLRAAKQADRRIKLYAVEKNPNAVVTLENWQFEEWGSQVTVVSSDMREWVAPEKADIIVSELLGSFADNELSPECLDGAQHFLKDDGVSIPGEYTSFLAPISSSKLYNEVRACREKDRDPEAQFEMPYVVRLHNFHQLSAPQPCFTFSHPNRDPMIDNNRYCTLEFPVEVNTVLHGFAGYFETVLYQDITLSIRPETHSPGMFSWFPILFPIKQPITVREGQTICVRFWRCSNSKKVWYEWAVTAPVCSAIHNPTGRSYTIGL
# Sequence of Histone-lysine N-methyltransferase EHMT2 (Homo sapiens) (Q96KQ7 whole entry): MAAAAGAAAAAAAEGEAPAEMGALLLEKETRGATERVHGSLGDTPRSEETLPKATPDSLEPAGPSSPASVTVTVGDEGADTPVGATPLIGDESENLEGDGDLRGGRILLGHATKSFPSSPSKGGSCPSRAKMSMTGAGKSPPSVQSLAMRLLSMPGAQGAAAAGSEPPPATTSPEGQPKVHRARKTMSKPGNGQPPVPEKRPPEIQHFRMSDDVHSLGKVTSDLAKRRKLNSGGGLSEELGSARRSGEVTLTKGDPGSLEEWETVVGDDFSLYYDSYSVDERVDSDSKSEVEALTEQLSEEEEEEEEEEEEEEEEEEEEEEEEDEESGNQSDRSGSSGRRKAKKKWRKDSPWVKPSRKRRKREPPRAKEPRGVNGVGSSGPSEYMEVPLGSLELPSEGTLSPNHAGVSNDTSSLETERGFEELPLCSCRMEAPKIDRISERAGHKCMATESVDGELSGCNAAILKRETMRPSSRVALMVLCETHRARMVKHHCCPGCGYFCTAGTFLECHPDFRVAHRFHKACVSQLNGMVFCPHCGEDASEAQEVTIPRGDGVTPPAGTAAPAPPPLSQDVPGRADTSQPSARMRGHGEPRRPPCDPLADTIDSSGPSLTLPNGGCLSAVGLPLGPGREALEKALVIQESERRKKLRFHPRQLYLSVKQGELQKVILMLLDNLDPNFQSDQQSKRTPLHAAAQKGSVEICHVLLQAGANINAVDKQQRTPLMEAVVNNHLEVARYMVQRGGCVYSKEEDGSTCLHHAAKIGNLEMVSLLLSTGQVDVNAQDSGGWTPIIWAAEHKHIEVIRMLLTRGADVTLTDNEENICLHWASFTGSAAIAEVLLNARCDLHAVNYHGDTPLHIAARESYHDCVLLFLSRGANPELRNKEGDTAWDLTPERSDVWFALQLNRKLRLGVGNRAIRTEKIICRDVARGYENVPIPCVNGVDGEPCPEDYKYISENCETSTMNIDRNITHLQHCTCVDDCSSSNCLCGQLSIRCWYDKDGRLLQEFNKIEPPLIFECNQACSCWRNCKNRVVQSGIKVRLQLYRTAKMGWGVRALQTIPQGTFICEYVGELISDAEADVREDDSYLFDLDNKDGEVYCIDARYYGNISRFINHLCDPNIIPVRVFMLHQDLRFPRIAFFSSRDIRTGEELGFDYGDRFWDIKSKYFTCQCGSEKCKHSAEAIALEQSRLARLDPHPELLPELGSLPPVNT
# Sequence of Protein arginine N-methyltransferase 7 (Homo sapiens) (Q9NVM4 whole entry): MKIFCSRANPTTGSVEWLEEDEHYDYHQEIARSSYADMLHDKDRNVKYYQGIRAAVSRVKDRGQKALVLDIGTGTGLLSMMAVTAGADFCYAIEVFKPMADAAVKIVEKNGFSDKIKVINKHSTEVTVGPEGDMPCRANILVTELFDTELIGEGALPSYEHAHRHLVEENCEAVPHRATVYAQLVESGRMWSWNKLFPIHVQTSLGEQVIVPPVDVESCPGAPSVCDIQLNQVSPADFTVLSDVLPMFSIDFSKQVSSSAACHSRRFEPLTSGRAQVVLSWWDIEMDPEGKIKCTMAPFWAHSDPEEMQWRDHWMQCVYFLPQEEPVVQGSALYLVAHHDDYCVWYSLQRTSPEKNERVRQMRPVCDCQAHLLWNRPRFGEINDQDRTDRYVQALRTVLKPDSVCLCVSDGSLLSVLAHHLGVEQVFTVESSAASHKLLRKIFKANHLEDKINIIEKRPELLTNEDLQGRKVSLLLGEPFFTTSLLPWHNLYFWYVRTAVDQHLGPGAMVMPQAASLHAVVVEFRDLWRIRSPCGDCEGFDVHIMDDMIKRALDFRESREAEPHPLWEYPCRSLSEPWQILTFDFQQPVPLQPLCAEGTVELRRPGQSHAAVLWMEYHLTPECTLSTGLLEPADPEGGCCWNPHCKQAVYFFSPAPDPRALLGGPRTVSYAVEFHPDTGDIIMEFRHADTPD
smiles,measurement,setting,value
C=CC(=O)Nc1ccc(C)c(-c2cc(C(=O)NCc3c(C)cc(C)[nH]c3=O)c(C)c(N(CC)C3CCOCC3)c2)c1,Activity,PA-1 [1],0.34%
same,Activity,[2],Non-Toxic
same,inhibition,[3],inactive
same,IC50,SK-OV-3,56.4 µM
same,inhibition,[4],inactive
same,inhibition,[5],Active
same,inhibition,PA-1 [6],Dose-Dependent Effect
same,Activity,[7],Non-Toxic
same,inhibition,[8],inactive
same,AUC(0-t) at 24 h,[9],12600 ng·h/mL
same,IC50,A549,28.7 µM
same,IC50,[10],1.27 µM
same,IC50,HEY,35.5 µM
same,inhibition,[11],Active
same,Cmax,[12],6740 ng/mL
same,Activity,[13],Non-Toxic
same,inhibition,[14],Tde
same,IC50,BT-549,18.9 µM
same,Activity,[15],Non-Toxic
same,Activity,[16],Non-Toxic
same,viability at 5 µM,PA-1 [17],83.2%
same,IC50,ES-2,36.4 µM
same,inhibition,[18],Active
same,Activity,PA-1 [19],2.21%
same,Activity,PA-1 [20],3.36%
same,Activity,PA-1 [21],87.19%
same,Activity,[22],Non-Toxic
same,AUCt,[23],7225.47 ng·h/mL
same,Activity,[24],Active
same,MRT last at 24 h,[25],1.73 h
same,inhibition,[26],inactive
same,inhibition,A2780,Dose-Dependent Effect
same,inhibition,[27],inactive
same,inhibition,[28],Active
same,IC50,NCI-H1703,26.3 µM

# — ChEMBL document CHEMBL5316326, “Discovery of a Novel Covalent EZH2 Inhibitor Based on Tazemetostat Scaffold for the Treatment of Ovarian Cancer” (J Med Chem, 2023)
